Test results reported in the NIST ThermoML archive (doi:10.1021/je060271a).
± gives the expanded uncertainty stated by the source.

Conditions: 343.15 K, Liquid, Vibrating tube method

`CCCCCCCC(=O)OCC(COC(=O)CCCCCCC)(COC(=O)CCCCCCC)COC(=O)CCCCCCC` [pentaerythritol tetraoctanoate] gave a mass density (18521 kPa) of 939.1 ± 1.2 kg/m3, a mass density (18542 kPa) of 939.2 ± 1.2 kg/m3 and a mass density (18560 kPa) of 939.1 ± 1.2 kg/m3. For the same compound, the mass density (18577 kPa) was 939.1 ± 1.2 kg/m3, the mass density (18598 kPa) was 939.1 ± 1.2 kg/m3 and the mass density (18616 kPa) was 939.1 ± 1.2 kg/m3. For the same compound, the mass density (18635 kPa) was 939.2 ± 1.2 kg/m3, the mass density (18657 kPa) was 939.2 ± 1.2 kg/m3 and the mass density (18673 kPa) was 939.2 ± 1.2 kg/m3. For the same compound, the mass density (18695 kPa) was 939.2 ± 1.2 kg/m3, the mass density (18712 kPa) was 939.1 ± 1.2 kg/m3 and the mass density (18730 kPa) was 939.3 ± 1.2 kg/m3. It also gave a mass density (18752 kPa) of 939.4 ± 1.2 kg/m3, a mass density (18771 kPa) of 939.4 ± 1.2 kg/m3 and a mass density (18789 kPa) of 939.2 ± 1.2 kg/m3. For the same compound, the mass density (18812 kPa) was 939.2 ± 1.2 kg/m3, the mass density (18830 kPa) was 939.2 ± 1.2 kg/m3 and the mass density (18848 kPa) was 939.3 ± 1.2 kg/m3. It also gave a mass density (18870 kPa) of 939.4 ± 1.2 kg/m3, a mass density (18888 kPa) of 939.3 ± 1.2 kg/m3 and a mass density (18907 kPa) of 939.4 ± 1.2 kg/m3. It also gave a mass density (18926 kPa) of 939.4 ± 1.2 kg/m3, a mass density (18948 kPa) of 939.4 ± 1.2 kg/m3 and a mass density (18967 kPa) of 939.4 ± 1.2 kg/m3. The mass density (18986 kPa) was 939.4 ± 1.2 kg/m3, the mass density (19008 kPa) was 939.4 ± 1.2 kg/m3 and the mass density (19027 kPa) was 939.4 ± 1.2 kg/m3. For the same compound, the mass density (19049 kPa) was 939.6 ± 1.2 kg/m3, the mass density (19068 kPa) was 939.5 ± 1.2 kg/m3 and the mass density (19087 kPa) was 939.4 ± 1.2 kg/m3. The mass density (19106 kPa) was 939.5 ± 1.2 kg/m3, the mass density (19129 kPa) was 939.5 ± 1.2 kg/m3 and the mass density (19148 kPa) was 939.4 ± 1.2 kg/m3. It also gave a mass density (19167 kPa) of 939.5 ± 1.2 kg/m3, a mass density (19190 kPa) of 939.6 ± 1.2 kg/m3 and a mass density (19210 kPa) of 939.6 ± 1.2 kg/m3. For the same compound, the mass density (19225 kPa) was 939.6 ± 1.2 kg/m3, the mass density (19248 kPa) was 939.6 ± 1.2 kg/m3 and the mass density (19271 kPa) was 939.5 ± 1.2 kg/m3. The mass density (19291 kPa) was 939.6 ± 1.2 kg/m3, the mass density (19310 kPa) was 939.7 ± 1.2 kg/m3 and the mass density (19334 kPa) was 939.6 ± 1.2 kg/m3. The mass density (19353 kPa) was 939.6 ± 1.2 kg/m3, the mass density (19373 kPa) was 939.6 ± 1.2 kg/m3 and the mass density (19396 kPa) was 939.7 ± 1.2 kg/m3. It also gave a mass density (19416 kPa) of 939.7 ± 1.2 kg/m3, a mass density (19436 kPa) of 939.7 ± 1.2 kg/m3 and a mass density (19456 kPa) of 939.8 ± 1.2 kg/m3. It also gave a mass density (19480 kPa) of 939.6 ± 1.2 kg/m3, a mass density (19499 kPa) of 939.7 ± 1.2 kg/m3 and a mass density (19519 kPa) of 939.6 ± 1.2 kg/m3. For the same compound, the mass density (19543 kPa) was 939.7 ± 1.2 kg/m3, the mass density (19563 kPa) was 939.8 ± 1.2 kg/m3 and the mass density (19587 kPa) was 939.8 ± 1.2 kg/m3. It also gave a mass density (19608 kPa) of 939.8 ± 1.2 kg/m3, a mass density (19627 kPa) of 939.7 ± 1.2 kg/m3 and a mass density (19647 kPa) of 939.8 ± 1.2 kg/m3. The mass density (19671 kPa) was 939.9 ± 1.2 kg/m3, the mass density (19691 kPa) was 939.7 ± 1.2 kg/m3 and the mass density (19712 kPa) was 939.8 ± 1.2 kg/m3. For the same compound, the mass density (19736 kPa) was 939.8 ± 1.2 kg/m3, the mass density (19756 kPa) was 939.8 ± 1.2 kg/m3 and the mass density (19780 kPa) was 939.9 ± 1.2 kg/m3. It also gave a mass density (19801 kPa) of 940.1 ± 1.2 kg/m3, a mass density (19821 kPa) of 940.1 ± 1.2 kg/m3 and a mass density (19841 kPa) of 939.9 ± 1.2 kg/m3. It also gave a mass density (19866 kPa) of 940 ± 1.2 kg/m3, a mass density (19887 kPa) of 940 ± 1.2 kg/m3 and a mass density (19907 kPa) of 940 ± 1.2 kg/m3. It also gave a mass density (19932 kPa) of 940 ± 1.2 kg/m3, a mass density (19952 kPa) of 940.1 ± 1.2 kg/m3 and a mass density (19977 kPa) of 940 ± 1.2 kg/m3. For the same compound, the mass density (19999 kPa) was 940 ± 1.2 kg/m3, the mass density (20019 kPa) was 940 ± 1.2 kg/m3 and the mass density (20040 kPa) was 940.1 ± 1.2 kg/m3. It also gave a mass density (20065 kPa) of 940 ± 1.2 kg/m3, a mass density (20108 kPa) of 940.1 ± 1.2 kg/m3 and a mass density (20155 kPa) of 940.1 ± 1.2 kg/m3. It also gave a mass density (20180 kPa) of 940.2 ± 1.2 kg/m3, a mass density (20201 kPa) of 940.2 ± 1.2 kg/m3 and a mass density (20223 kPa) of 940.1 ± 1.2 kg/m3. The mass density (20245 kPa) was 940.2 ± 1.2 kg/m3, the mass density (20271 kPa) was 940.1 ± 1.2 kg/m3 and the mass density (20295 kPa) was 940.1 ± 1.2 kg/m3. For the same compound, the mass density (20316 kPa) was 940.3 ± 1.2 kg/m3, the mass density (20338 kPa) was 940.2 ± 1.2 kg/m3 and the mass density (20364 kPa) was 940.2 ± 1.2 kg/m3. It also gave a mass density (20386 kPa) of 940.3 ± 1.2 kg/m3, a mass density (20408 kPa) of 940.3 ± 1.2 kg/m3 and a mass density (20434 kPa) of 940.3 ± 1.2 kg/m3. It also gave a mass density (20527 kPa) of 940.5 ± 1.2 kg/m3, a mass density (20550 kPa) of 940.3 ± 1.2 kg/m3 and a mass density (20577 kPa) of 940.3 ± 1.2 kg/m3. It also gave a mass density (20596 kPa) of 940.4 ± 1.2 kg/m3, a mass density (20622 kPa) of 940.5 ± 1.2 kg/m3 and a mass density (20645 kPa) of 940.4 ± 1.2 kg/m3. It also gave a mass density (20667 kPa) of 940.5 ± 1.2 kg/m3, a mass density (20690 kPa) of 940.5 ± 1.2 kg/m3 and a mass density (20708 kPa) of 940.5 ± 1.2 kg/m3. It also gave a mass density (20731 kPa) of 940.6 ± 1.2 kg/m3, a mass density (20753 kPa) of 940.5 ± 1.2 kg/m3 and a mass density (20790 kPa) of 940.5 ± 1.2 kg/m3. For the same compound, the mass density (20813 kPa) was 940.5 ± 1.2 kg/m3, the mass density (20836 kPa) was 940.5 ± 1.2 kg/m3 and the mass density (20864 kPa) was 940.6 ± 1.2 kg/m3. For the same compound, the mass density (20887 kPa) was 940.6 ± 1.2 kg/m3, the mass density (20910 kPa) was 940.5 ± 1.2 kg/m3 and the mass density (20938 kPa) was 940.7 ± 1.2 kg/m3. It also gave a mass density (20961 kPa) of 940.6 ± 1.2 kg/m3, a mass density (20984 kPa) of 940.8 ± 1.2 kg/m3 and a mass density (21008 kPa) of 940.5 ± 1.2 kg/m3. For the same compound, the mass density (21036 kPa) was 940.7 ± 1.2 kg/m3, the mass density (21059 kPa) was 940.8 ± 1.2 kg/m3 and the mass density (21087 kPa) was 940.8 ± 1.2 kg/m3. For the same compound, the mass density (21110 kPa) was 940.8 ± 1.2 kg/m3, the mass density (21134 kPa) was 940.7 ± 1.2 kg/m3 and the mass density (21162 kPa) was 940.8 ± 1.2 kg/m3. It also gave a mass density (21185 kPa) of 940.8 ± 1.2 kg/m3, a mass density (21215 kPa) of 940.8 ± 1.2 kg/m3 and a mass density (21239 kPa) of 940.8 ± 1.2 kg/m3. The mass density (21262 kPa) was 940.9 ± 1.2 kg/m3, the mass density (21286 kPa) was 940.9 ± 1.2 kg/m3 and the mass density (21315 kPa) was 940.9 ± 1.2 kg/m3. The mass density (21339 kPa) was 940.9 ± 1.2 kg/m3, the mass density (21363 kPa) was 940.9 ± 1.2 kg/m3 and the mass density (21392 kPa) was 941 ± 1.2 kg/m3. It also gave a mass density (21416 kPa) of 941 ± 1.2 kg/m3, a mass density (21440 kPa) of 941 ± 1.2 kg/m3 and a mass density (21469 kPa) of 940.9 ± 1.2 kg/m3. The mass density (21494 kPa) was 941.1 ± 1.2 kg/m3, the mass density (21518 kPa) was 941.1 ± 1.2 kg/m3 and the mass density (21548 kPa) was 941 ± 1.2 kg/m3. For the same compound, the mass density (21573 kPa) was 941.1 ± 1.2 kg/m3, the mass density (21597 kPa) was 941.1 ± 1.2 kg/m3 and the mass density (21622 kPa) was 941.1 ± 1.2 kg/m3. It also gave a mass density (21652 kPa) of 941.1 ± 1.2 kg/m3, a mass density (21677 kPa) of 941.1 ± 1.2 kg/m3 and a mass density (21702 kPa) of 941.2 ± 1.2 kg/m3. It also gave a mass density (21732 kPa) of 941.3 ± 1.2 kg/m3, a mass density (21757 kPa) of 941.3 ± 1.2 kg/m3 and a mass density (21782 kPa) of 941.2 ± 1.2 kg/m3. It also gave a mass density (21812 kPa) of 941.2 ± 1.2 kg/m3, a mass density (21837 kPa) of 941.1 ± 1.2 kg/m3 and a mass density (21863 kPa) of 941.2 ± 1.2 kg/m3. For the same compound, the mass density (21890 kPa) was 941.1 ± 1.2 kg/m3, the mass density (21920 kPa) was 941.2 ± 1.2 kg/m3 and the mass density (21946 kPa) was 941.3 ± 1.2 kg/m3. It also gave a mass density (21977 kPa) of 941.3 ± 1.2 kg/m3.
